Assays:
Experiment in all cases: Greenhouse whole-plant imazapir dose response (Example 8)
Assay type in all cases: in vivo, Helianthus annuus
[1] = system: sunflower IB920 (Manteiner Line, A205V); details: 14 DAT
Experimental: (§1) A greenhouse study was conducted to quantify and contrast the imazapir sensivity of the mutants A122T and A205V in different genetic backgrounds at the whole plant level in sunflower. Seeds of the different sunflower lines that were used in this study were obtained under field conditions.
(§2) Seeds were sown in Petri dishes and, after germination, plantlets were transplanted to pots of 10 cm of diameter in a potting media consisting of equal parts of vermiculite, soil and sand. Plants were grown in a greenhouse under natural light conditions supplemented with 400 W sodium halide lamps to provide a 16 hrs daylength. Day/night temperatures were 25 and 20° C., respectively. At the V2 stage 10 plants of each genotype were randomly assigned to each treatment consisting of […] imazapir doses (0, 40, 80, 160, 240, 320, 400 and 480 g ai/ha), and a zero-time biomass determination. Experiment was arranged as a randomized block design with a full factorial (sunflower line×treatment) arrangement of treatments and 10 replications.
(§3) On the day of herbicide application ten plants of each genotype were cut at the cotyledonal node and dried at 60° C. for 48 hrs zero-time for dried weight determination.
(§4) Height was determined as the distance between the cotyledonal node and the apex of each plant. For root biomass determination, each plant was taken from the pot and the potting media was washed out from the roots. Above ground biomass data from each line were converted to biomass accumulation after application by subtracting the appropriate average zero-time biomass from each sample. Dry biomass data were converted to percentages of the untreated control plants within each line to allow direct comparisons between groups. […]

[2] = system: sunflower GIM 5-6 (Restorer Line, A122T); details: GIM5-6, 14 DAT
Experimental: as §1, §2, §3, §4

[3] = system: sunflower IR79 (Restorer Line, A205V); details: 14 DAT
Experimental: as §1, §2, §3, §4

[4] = system: sunflower GM1606 (Manteiner Line, A122T); details: 14 DAT
Experimental: as §1, §2, §3, §4

[5] = system: sunflower GIM 5-7 (Manteiner Line, A205V); details: GIM5-7, 14 DAT
Experimental: as §1, §2, §3, §4

CC(C)C1(C)N=C(c2ncccc2C(=O)O)NC1=O (centres unmarked) [imazapyr]
biomass accumulation (above ground dry weight) ([1]; 0.5x (40 g ai/ha)): 93.9 % of untreated plots | plant height ([1]; 0.5x (40 g ai/ha)): 96.2 % of untreated plots | root dry weight ([1]; 0.5x (40 g ai/ha)): 94.0 % of untreated plots | biomass accumulation (above ground dry weight) ([1]; 1x (80 g ai/ha)): 87.9 % of untreated plots | plant height ([1]; 1x (80 g ai/ha)): 80.0 % of untreated plots | root dry weight ([1]; 1x (80 g ai/ha)): 89.6 % of untreated plots | biomass accumulation (above ground dry weight) ([1]; 2x (160 g ai/ha)): 58.8 % of untreated plots | plant height ([1]; 2x (160 g ai/ha)): 61.5 % of untreated plots | root dry weight ([1]; 2x (160 g ai/ha)): 50.7 % of untreated plots | biomass accumulation (above ground dry weight) ([1]; 3x (240 g ai/ha)): 48.4 % of untreated plots | plant height ([1]; 3x (240 g ai/ha)): 40.9 % of untreated plots | root dry weight ([1]; 3x (240 g ai/ha)): 37.3 % of untreated plots | biomass accumulation (above ground dry weight) ([1]; 4x (320 g ai/ha)): 35.5 % of untreated plots | plant height ([1]; 4x (320 g ai/ha)): 27.9 % of untreated plots | root dry weight ([1]; 4x (320 g ai/ha)): 32.8 % of untreated plots | plant height ([1]; 5x (400 g ai/ha)): 30.0 % of untreated plots | root dry weight ([1]; 5x (400 g ai/ha)): 25.4 % of untreated plots | biomass accumulation (above ground dry weight) ([1]; 6x (480 g ai/ha)): 29.4 % of untreated plots | plant height ([1]; 6x (480 g ai/ha)): 27.1 % of untreated plots | root dry weight ([1]; 6x (480 g ai/ha)): 19.4 % of untreated plots | biomass accumulation (above ground dry weight) ([2]; 0.5x (40 g ai/ha)): 100.0 % of untreated plots | plant height ([2]; 0.5x (40 g ai/ha)): 100.0 % of untreated plots | root dry weight ([2]; 0.5x (40 g ai/ha)): 100 % of untreated plots | biomass accumulation (above ground dry weight) ([2]; 1x (80 g ai/ha)): 96.4 % of untreated plots | plant height ([2]; 1x (80 g ai/ha)): 100.0 % of untreated plots | root dry weight ([2]; 1x (80 g ai/ha)): 88.0 % of untreated plots | biomass accumulation (above ground dry weight) ([2]; 2x (160 g ai/ha)): 97.7 % of untreated plots | plant height ([2]; 2x (160 g ai/ha)): 99.1 % of untreated plots | root dry weight ([2]; 2x (160 g ai/ha)): 90.0 % of untreated plots | biomass accumulation (above ground dry weight) ([2]; 3x (240 g ai/ha)): 95.8 % of untreated plots | plant height ([2]; 3x (240 g ai/ha)): 98.1 % of untreated plots | root dry weight ([2]; 3x (240 g ai/ha)): 98.0 % of untreated plots | biomass accumulation (above ground dry weight) ([2]; 4x (320 g ai/ha)): 90.8 % of untreated plots | plant height ([2]; 4x (320 g ai/ha)): 91.0 % of untreated plots | root dry weight ([2]; 4x (320 g ai/ha)): 80.0 % of untreated plots | biomass accumulation (above ground dry weight) ([2]; 5x (400 g ai/ha)): 81.9 % of untreated plots | plant height ([2]; 5x (400 g ai/ha)): 94.3 % of untreated plots | root dry weight ([2]; 5x (400 g ai/ha)): 80.0 % of untreated plots | biomass accumulation (above ground dry weight) ([2]; 6x (480 g ai/ha)): 78.0 % of untreated plots | plant height ([2]; 6x (480 g ai/ha)): 85.8 % of untreated plots | root dry weight ([2]; 6x (480 g ai/ha)): 65.8 % of untreated plots | biomass accumulation (above ground dry weight) ([3]; 0.5x (40 g ai/ha)): 94.4 % of untreated plots | plant height ([3]; 0.5x (40 g ai/ha)): 92.8 % of untreated plots | root dry weight ([3]; 0.5x (40 g ai/ha)): 98.6 % of untreated plots | biomass accumulation (above ground dry weight) ([3]; 1x (80 g ai/ha)): 74.0 % of untreated plots | plant height ([3]; 1x (80 g ai/ha)): 80.9 % of untreated plots | root dry weight ([3]; 1x (80 g ai/ha)): 53.4 % of untreated plots | biomass accumulation (above ground dry weight) ([3]; 2x (160 g ai/ha)): 67.7 % of untreated plots | plant height ([3]; 2x (160 g ai/ha)): 74.9 % of untreated plots | root dry weight ([3]; 2x (160 g ai/ha)): 42.5 % of untreated plots | biomass accumulation (above ground dry weight) ([3]; 3x (240 g ai/ha)): 49.1 % of untreated plots | plant height ([3]; 3x (240 g ai/ha)): 55.7 % of untreated plots | root dry weight ([3]; 3x (240 g ai/ha)): 38.4 % of untreated plots | biomass accumulation (above ground dry weight) ([3]; 4x (320 g ai/ha)): 44.5 % of untreated plots | plant height ([3]; 4x (320 g ai/ha)): 52.8 % of untreated plots | root dry weight ([3]; 4x (320 g ai/ha)): 31.5 % of untreated plots | biomass accumulation (above ground dry weight) ([3]; 5x (400 g ai/ha)): 40.1 % of untreated plots | plant height ([3]; 5x (400 g ai/ha)): 41.7 % of untreated plots | root dry weight ([3]; 5x (400 g ai/ha)): 23.3 % of untreated plots | biomass accumulation (above ground dry weight) ([3]; 6x (480 g ai/ha)): 35.3 % of untreated plots | plant height ([3]; 6x (480 g ai/ha)): 33.2 % of untreated plots | root dry weight ([3]; 6x (480 g ai/ha)): 21.9 % of untreated plots | biomass accumulation (above ground dry weight) ([4]; 0.5x (40 g ai/ha)): 100.0 % of untreated plots | plant height ([4]; 0.5x (40 g ai/ha)): 97.0 % of untreated plots | root dry weight ([4]; 0.5x (40 g ai/ha)): 100 % of untreated plots | biomass accumulation (above ground dry weight) ([4]; 1x (80 g ai/ha)): 100.0 % of untreated plots | plant height ([4]; 1x (80 g ai/ha)): 95.7 % of untreated plots | root dry weight ([4]; 1x (80 g ai/ha)): 100.0 % of untreated plots | biomass accumulation (above ground dry weight) ([4]; 2x (160 g ai/ha)): 97.6 % of untreated plots | plant height ([4]; 2x (160 g ai/ha)): 95.2 % of untreated plots | root dry weight ([4]; 2x (160 g ai/ha)): 92.5 % of untreated plots | biomass accumulation (above ground dry weight) ([4]; 3x (240 g ai/ha)): 95.4 % of untreated plots | plant height ([4]; 3x (240 g ai/ha)): 95.7 % of untreated plots | root dry weight ([4]; 3x (240 g ai/ha)): 85.2 % of untreated plots | biomass accumulation (above ground dry weight) ([4]; 4x (320 g ai/ha)): 90.5 % of untreated plots | plant height ([4]; 4x (320 g ai/ha)): 94.1 % of untreated plots | root dry weight ([4]; 4x (320 g ai/ha)): 87.0 % of untreated plots | biomass accumulation (above ground dry weight) ([4]; 5x (400 g ai/ha)): 85.3 % of untreated plots | plant height ([4]; 5x (400 g ai/ha)): 94.3 % of untreated plots | root dry weight ([4]; 5x (400 g ai/ha)): 88.1 % of untreated plots | biomass accumulation (above ground dry weight) ([4]; 6x (480 g ai/ha)): 83.0 % of untreated plots | plant height ([4]; 6x (480 g ai/ha)): 91.4 % of untreated plots | root dry weight ([4]; 6x (480 g ai/ha)): 69.5 % of untreated plots | biomass accumulation (above ground dry weight) ([5]; 0.5x (40 g ai/ha)): 92.9 % of untreated plots | plant height ([5]; 0.5x (40 g ai/ha)): 79.1 % of untreated plots | root dry weight ([5]; 0.5x (40 g ai/ha)): 79.2 % of untreated plots | biomass accumulation (above ground dry weight) ([5]; 1x (80 g ai/ha)): 75.1 % of untreated plots | plant height ([5]; 1x (80 g ai/ha)): 76.7 % of untreated plots | root dry weight ([5]; 1x (80 g ai/ha)): 56.3 % of untreated plots | biomass accumulation (above ground dry weight) ([5]; 2x (160 g ai/ha)): 55.1 % of untreated plots | plant height ([5]; 2x (160 g ai/ha)): 57.7 % of untreated plots | root dry weight ([5]; 2x (160 g ai/ha)): 40.6 % of untreated plots | biomass accumulation (above ground dry weight) ([5]; 3x (240 g ai/ha)): 45.6 % of untreated plots | plant height ([5]; 3x (240 g ai/ha)): 55.3 % of untreated plots | root dry weight ([5]; 3x (240 g ai/ha)): 40.2 % of untreated plots | biomass accumulation (above ground dry weight) ([5]; 4x (320 g ai/ha)): 31.8 % of untreated plots | plant height ([5]; 4x (320 g ai/ha)): 27.3 % of untreated plots | root dry weight ([5]; 4x (320 g ai/ha)): 34.0 % of untreated plots | biomass accumulation (above ground dry weight) ([5]; 5x (400 g ai/ha)): 34.2 % of untreated plots | plant height ([5]; 5x (400 g ai/ha)): 37.2 % of untreated plots | root dry weight ([5]; 5x (400 g ai/ha)): 48.5 % of untreated plots | biomass accumulation (above ground dry weight) ([5]; 6x (480 g ai/ha)): 36.8 % of untreated plots | plant height ([5]; 6x (480 g ai/ha)): 30.0 % of untreated plots | root dry weight ([5]; 6x (480 g ai/ha)): 43.1 % of untreated plots

Source: patent publication US20180016593A1, “HERBICIDE-RESISTANT SUNFLOWER PLANTS, POLYNUCLEOTIDES ENCODING HERBICIDE-RESISTANT ACETOHYDROXYACID SYNTHASE LARGE SUBUNIT PROTEINS, AND METHODS OF USE” (priority 2005, published 2018)
